From patent US6635662B2, “Radicicol derivatives” (Kyowa Hakko Kogyo Co., Ltd., priority 1996, dated 2003)

Columns and labels:
[1] = tested on: rat normal fibroblast cell line 3Y1-B; experiment: Growth inhibition test (MTT) on 3Y1-B; format: cell-based; conditions: 3Y1-B cells, 72 hours
Experimental: (§1) The cells were inoculated into a 96 well microplate (# 167008, manufactured by Nunc) in an amount of 1,000 cells per well and pre-cultured at 37° C. for 24 hours in a 5% carbon dioxide gas incubator using Dulbacco's modified Eagle's medium (DMEM) which had been supplemented with 10% fetal calf serum (FCS). Next, a DMSO solution of each test compound which had been adjusted to 10 mM was serially diluted with the culturing medium and add to the wells in 50 μl portions. Thereafter, the culturing was continued at 37° C. for 72 hours in the 5% carbon dioxide gas incubator. Five hours before completion of the culturing, 3-(4,5-dimethylthiazo-2-yl)-2,5-diphenyltetrazolium bromide (manufactured by Sigma, hereinafter referred to as “MTT”) which had been dissolved in the culturing medium to a final concentration of […] was dispensed into the wells in 50 μl portions. After completion of the culturing, DMSO was dispensed into the wells in […] portions, and the plate was vigorously stirred using a plate mixer to dissolve MTT-formazan crystals completely. Thereafter, absorbance at 550 nm was measured using a microplate reader MTP-32 (manufactured by Corona Denki). The cell growth inhibition activity was expressed by 50% inhibition concentration (IC50).

[2] = tested on: Erk2 phosphorylation; experiment: Erk2 phosphorylation inhibition activity in KNRK 5.2 cells; format: cell-based; conditions: Rattus norvegicus, 40 hours, phosphorylated Erk2/total Erk2 ratio halved
Experimental: (§2) Activated K-Ras gene-introduced rat kidney epithelial cell line KNRK 5.2 was cultured at 37° C. for 40 hours in an atmosphere of 5% carbon dioxide gas using Dulbecco's modified Eagle's medium (DMEM) which was supplemented with 10% fetal calf serum (FCS) and to which was added each radicicol derivative at respective test concentration. The resulting cells were lysed for 30 minutes at 4° C. in a cooled buffer for lysis use [50 mM HEPES NaOH, pH 7.4, 250 mM sodium chloride (NaCl), 1 mM ethylenediaminetetraacetic acid (EDTA), 1% Nonidet P-40 (NP40), 1 mM dithiothreitol (DTT), 1 mM phenylmethylsulfonyl fluoride (PMSF), 5 μg/ml leupeptin, 2 mM sodium orthovanadate (Na3VO4), 1 mM sodium fluoride (NaF), 10 mM β-glycerophosphate] and then centrifuged at 30,000 G for 10 minutes. The protein content of the thus prepared supernatant fluids was measured to prepare samples having the same protein quantity for each lane, and then separation of proteins was carried out by SDS-PAGE. The thus separated protein samples were transferred on a polyvinylidene difluoride (PVDF) membrane, and then anti-phosphorylation MAPK antibody (anti-phospho MAPK, manufactured by New England Biolabs), anti-Erk2 antibody (anti-Erk2, manufactured by Upstate Biotechnology) and anti-Raf-1 antibody (anti-Raf-1 (C-12), manufactured by Santa Cruz Biotechnology) were added thereto as primary antibodies and allowed to react with the proteins on the membrane. Thereafter, a horseradish peroxidase-labeled secondary antibody (anti-rabbit Ig antibody or anti-mouse Ig antibody, manufactured by Amersham) capable of reacting with respective primary antibodies was added thereto as the secondary antibody to carry out the reaction. Detection was carried out using ECL reagent (manufactured by Amersham), and the amount of phosphorylated Erk2 protein, total Erk2 protein and Raf-1 protein was determined by carrying out density scanning of the bands generated on the X-ray film. The Erk2 phosphorylation inhibition activity of radicicol derivatives is determined by calculating the ratio of phosphorylated Erk2 protein (phosphorylated Erk2 protein/total Erk2 protein) based on the results prepared from the samples of respective drug concentrations, which is expressed as the concentration of each derivative (IC50) by which the ratio becomes half in comparison with the case in which the drug is not added.

[3] = tested on: v-src oncogene transformed cell line SR-3Y1; experiment: Growth inhibition test (MTT) on SR-3Y1; format: cell-based; conditions: Rattus norvegicus, SR3Y1, SR-3Y1 cells, 72 hours
Experimental: as §1

[4] = tested on: Raf-1 protein; experiment: Effect of decreasing intracellular Raf-1 protein quantity in KNRK 5.2 cells; format: cell-based, rat; conditions: 40 hours, Raf-1 protein/total Erk2 protein ratio halved, read-out: Raf-1 protein quantity decrease: IC50
Experimental: as §2

[5] = tested on: human breast cancer MX-1 solid tumor; experiment: Antitumor test on nude mouse-transplanted human breast cancer MX-1 solid tumor; format: in vivo; conditions: tumor volume ratio, 100 mg/kg per day i.v. once a day for 5 days, measured day 12 after administration
Experimental: From a tumor lump of a human breast cancer cell line MX-1 subcultured in nude mice (BALB/c nu/nu mice: CLEA Japan), a portion showing good growth was selected and cut into a 2 mm square fragment which was then transplanted under the abdominal side skin of each male nude mouse of 7 to 9 weeks of age using a trocar. The tumor size was measured on the 13th day after the tumor transplantation to select properly growing tumors having a tumor volume of 100 to 300 mm^3 (calculated by a calculation formula of “major axis×minor axis^2×½”), the mice were optionally grouped into 5 animals per group, and then each test compound which had been dissolved in a 7.5% cremohor EL (manufactured by Sigma)/5% dimethylacetamide (DMA)/87.5% physiological saline solution was administered to the mice by intravenous injection at a dosage of 0.05 ml (100 mg/kg) per day, once a day for 5 days. The antitumor activity of each test compound was expressed by a ratio (T/C) of the tumor volume (T) in the test drug-administered group to the tumor volume (C) in the control group on the 12th or 14th day after administration of the test compound.

[6] = tested on: intracellular tyrosine kinase; experiment: Inhibition test of intracellular tyrosine kinase (tyrosine-phosphorylated protein, Western blot); format: cell-based; conditions: Rattus norvegicus, SR3Y1; SR-3Y1 cells, 15 hours culture, tyrosine-phosphorylated protein reduced to half vs control; read-out: Inhibitory activity of intracellular tyrosine kinase IC50
Experimental: SR-3Y1 cells were cultured at 37° C. for 15 hours in an atmosphere of 5% carbon dioxide, using Dulbecco's modified Eagle's medium (DMEM) containing 10% fetal calf serum (FCS), to which each radicicol derivative to be tested had been added in varied concentration. The thus cultured cells were lysed at 4° C. for 20 minutes in a cooled buffer for lysis use (50 mM Tris HCl, pH 7.5, 150 mM sodium chloride (NaCl), 1% Triton X-100, 0.1% sodium dodecyl sulfate (SDS), 1% sodium deoxycholate, 2 mM ethylenediaminetetraacetic acid (EDTA), 1 mM phenylmethanesulfonyl fluoride (PMSF), 20 μM leupeptin, 0.15 unit/ml aprotinin, 1 mM sodium orthovanadate (Na3VO4) and then centrifuged at 20,000 G for 30 minutes. After measuring protein concentration in the resulting supernatant fluid, samples were adjusted to the same protein quantity per lane to carry out separation of protein by SDS-PAGE. […] Detection was carried out using ECL reagent (Amersham Co.), and the amount of tyrosine-phosphorylated protein was determined by scanning the density of bands prepared on an X-ray film. […]

Row | SMILES | IC50 [2] [nM] | IC50 [4] [nM] | IC50 [6] [nM] | IC50 [1] [nM] | IC50 [3] [nM] | T/C (%) [5] [%]
1 | CC1CC2OC2C=CC=CC(=NOCCCCN2CCOCC2)Cc2c(Cl)c(O)cc(O)c2C(=O)O1 (stereo not shown) [Compound 64] | 110 | 190 | – | – | – | –
2 | CC1CC2OC2C=CC=CC(=NOCCN2CCCC2=O)Cc2c(Cl)c(O)cc(O)c2C(=O)O1 (stereo not shown) [Compound 69] | 60 | 120 | – | 8 | 4 | 4
3 | CNC(=O)ON=C1/C=C/C=C\C2OC2CC(C)OC(=O)c2c(O)cc(O)c(Cl)c2C1 (stereo not shown) [Compound 74] | – | – | – | 72 | 27 | –
4 | C[C@@H]1C[C@H]2O[C@@H]2/C=C\C=C\C(=O)Cc2c(Cl)c(O)cc(O)c2C(=O)O1 [Radicicol, radicicol] | – | – | 370 | 780 | 42 | –

Continued, in another order:

Row | IC50 [2] [nM] | IC50 [4] [nM] | IC50 [6] [nM] | SMILES | IC50 [1] [nM] | IC50 [3] [nM] | T/C (%) [5] [%]
5 | 350 | 340 | – | CC1CC2OC2C=CC=CC(=NOCc2ccccc2S(=O)(=O)N(C)C)Cc2c(Cl)c(O)cc(O)c2C(=O)O1 (stereo not shown) [Compound 50] | 120 | 21 | –
6 | 70 | 380 | – | CC1CC2OC2C=CC=CC(=NOCc2cccnc2)Cc2c(Cl)c(O)cc(O)c2C(=O)O1 (stereo not shown) [Compound 53] | 8 | < 4 | 46
7 | – | – | 130 | CCOC(=O)ON=C1/C=C/C=C\C2OC2CC(C)OC(=O)c2c(O)cc(O)c(Cl)c2C1 (stereo not shown) [Compound 73] | – | – | –
